In PMC10156859, “Unveiling an indole alkaloid diketopiperazine biosynthetic pathway that features a unique stereoisomerase and multifunctional methyltransferase” (Nature Communications, 2023):
Like-named read-outs stand apart in the source and are kept apart here.

Test system: T1, NozMT
T1 construct: N-terminal hexahistidine-tagged, codon-optimized synthetic gene in pQE31, E. coli M15(pREP4), Ni-NTA purified
Assay: initial rates, HPLC-UV […] nm, Michaelis-Menten fit
Assay type: biochemical, Nocardiopsis sp. CMB-M0232
Settings: 2 mM SAM, 10 μM enzyme, 40 mM Tris pH 7.5, 200 mM NaCl, 1% DMSO, 37 °C

Compound	Km (C3 methylation, read-out: apparent Km) [µM]	Km (N1' methylation, read-out: apparent average Km) [µM]
CC(C)=CC[C@]12C[C@@H]3C(=O)N[C@H](Cc4c[nH]c5ccccc45)C(=O)N3[C@H]1N(C)c1ccccc12 [compound 7, cyclo-D-Trp-N1'-methyl-C3'-prenyl-D-Trp]	606	
CC(C)=CC[C@]12C[C@@H]3C(=O)N[C@H](Cc4c[nH]c5ccccc45)C(=O)N3[C@H]1Nc1ccccc12 [compound 6, cyclo-D-Trp-C3'-prenyl-D-Trp]		146
